doi:10.1101/365775v1 (biorxiv, 2018)

Biological target: T1, mSec18 (monomeric Sec18; Sec18His8) (Saccharomyces cerevisiae, UniProt P18759)
T1 sequence (P18759 1-758): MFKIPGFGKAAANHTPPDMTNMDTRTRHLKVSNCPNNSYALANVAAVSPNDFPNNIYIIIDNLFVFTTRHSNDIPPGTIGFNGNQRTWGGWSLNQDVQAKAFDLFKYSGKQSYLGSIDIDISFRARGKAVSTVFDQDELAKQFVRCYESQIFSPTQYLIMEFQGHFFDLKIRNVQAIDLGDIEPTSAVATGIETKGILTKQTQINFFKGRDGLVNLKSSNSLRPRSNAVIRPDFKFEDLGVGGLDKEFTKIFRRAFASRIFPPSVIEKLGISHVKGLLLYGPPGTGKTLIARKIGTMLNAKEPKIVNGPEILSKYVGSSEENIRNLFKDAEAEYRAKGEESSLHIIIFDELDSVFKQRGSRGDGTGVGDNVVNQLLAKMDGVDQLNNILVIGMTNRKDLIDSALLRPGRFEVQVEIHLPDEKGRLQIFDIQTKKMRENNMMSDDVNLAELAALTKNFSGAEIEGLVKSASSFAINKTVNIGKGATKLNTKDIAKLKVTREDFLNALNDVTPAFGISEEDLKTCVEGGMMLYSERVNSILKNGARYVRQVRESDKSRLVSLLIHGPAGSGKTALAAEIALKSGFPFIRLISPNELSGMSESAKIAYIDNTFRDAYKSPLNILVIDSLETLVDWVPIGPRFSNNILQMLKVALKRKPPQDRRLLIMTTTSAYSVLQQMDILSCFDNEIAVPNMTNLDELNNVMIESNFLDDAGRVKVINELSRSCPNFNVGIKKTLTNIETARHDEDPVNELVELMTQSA
Experiment: microscale thermophoresis
Type: binding

`Nc1ncnc2c1ncn2[C@@H]1O[C@H](COP(=O)(O)OP(=O)(O)OP(=O)(O)O)[C@@H](O)[C@H]1O` [ATP] was tested. Which Kd did it give?
Its Kd is 56 ± 16 µM.
